Entries after “also recorded” stand apart in the source; their conditions may differ.
Assays:
Db/db mice = assay: Glucose lowering in db/db mice; assay type: in vivo, mouse; details: db/db mice with diabetes, given orally
Excerpt: (§1) In this study, the following animal models where used: • Db/db mice: homozygous mice are a model of obesity, diabetes and dyslipedemia where their leptin receptor activity is deficient. • Ob/ob mice: obese mice with diabetes. • Db/lean mice: heterozygous mice that are not diabetic. • Fat/STZ rats: non-genetically diabetic overweight rats that are fed diets enriched in fat and made hyperglycemic by chemically removing their pancreatic function to reduce insulin production by treating them with streptozotocin (STZ). • Fructose/STZ rats: non-diabetic rats that are fed diets enriched in fructose and made hyperglycemic by treating them with STZ. • ZDF rats: obese and hyperglycemic rats with other metabolic disorders.
(§2) Baseline glucose and triglyceride concentrations, where appropriate, were measured for both diabetic and normal animals.

Ob/ob mice = assay: Glucose lowering in ob/ob mice; assay type: in vivo, mouse; details: ob/ob mice with diabetes, given orally
Excerpt: as §1, §2

rodent models = assay: Oral NDGA in a variety of rodent models (model not given); assay type: in vivo
Procedure: (§3) In these studies, a variety of rodent models were used to evaluate the glucose-lowering properties and its effects on lipids, such as lowering of triglycerides. NDGA was administered orally to animals over a wide range of doses (10 to 350) mg/kg.
NDGA was effective at lowering glucose when formulated in either aqueous or lipophilic vehicles to varying degrees of efficacy.

[1] = tested on: high fat diet-fed/STZ rat model; assay: Liver and muscle glycogen content after NDGA treatment; assay type: in vivo
Procedure: In the high fat diet-fed/STZ rat model, liver and muscle glycogen content was measured after treatment with NDGA versus vehicle. Treatment with NDGA had no effect on muscle glycogen levels when compared to control.

Fat/STZ rats = assay: Fat/STZ rat model, oral NDGA in CMC, PEG or Gelucire vehicles: glucose, triglycerides, FFA; assay type: in vivo; details: for glucose: versus 366+/−32; for glucose levels: 250 mg/kg twice daily
Procedure: as §3
In this experiment, NDGA was dissolved in the following: • CMC: 0.25% carboxymethylcellulose • Gelucire: “Gelucire 44/14 (Gatefosse, Wildwood, N.J.; a well-defined mixture of mono-, di-, and tri-glycerides and mono- and di-fatty acid esters of polyethylene glycol) • PEG: 85% polyethylenene glycol, 10% tween and 5% propanediol
as §1, §2

[2] = tested on: fructose-fed and fat-fed/STZ rat models; assay: NDGA versus metformin at equimolar doses in fructose-fed and fat-fed/STZ rat models; assay type: in vivo
Excerpt: NDGA has been studied by administering it orally to animals to determine its effectiveness for lowering glucose, free fatty acid (FFA) and triglyceride levels. […] See Example 2 below. […] There was no significant baseline difference between the NDGA and metformin groups.
In one such study, the effects of NDGA and metformin as a control drug for treatment of diabetes were studied in a non-diabetic model of hypertriglyceridemia (fructose-fed) and a non-genetic, (i.e., streptozotocin (STZ) treated) model of diabetes. […] See FIGS. 2 (glucose) and 3 (triglycerides).

[3] = equimolar doses of NDGA or metformin

In the case of `CC(Cc1ccc(O)c(O)c1)C(C)Cc1ccc(O)c(O)c1` (centres unmarked) [NDGA, nordihydroguaiaretic acid], the glucose lowering (Db/db mice) was “significantly lowers glucose”, the glucose lowering (Ob/ob mice) was “significantly lowers glucose” and the triglyceride lowering (rodent models; CMC, PEG or Gelucire vehicles, doses as low as 10 mg/kg twice per day) was “lowered triglyceride concentrations”. For the same compound, the triglyceride lowering (rodent models; administered orally just once per day) was “lowered triglycerides”, the insulin concentrations (rodent models; highest dose studied, 350 mg/kg twice daily) was “did not result in increased insulin concentrations” and the glucose lowering (rodent models; once daily administration) was “generally ineffective at lowering glucose concentrations”. The “effect on muscle glycogen levels” value ([1]; compared to control) was “no effect”, the “reduction of liver glycogen concentrations” value ([1]; versus vehicle) was “approximately 75%” and the triglyceride levels (Fat/STZ rats; Fat/STZ rat, 40 mg/Kg once daily (QD), CMC delivery vehicle, 327 +/−25 without NDGA, no significant lowering) was 270 ± 26 mg/dL. It also gave a triglyceride levels (Fat/STZ rats; Fat/STZ rat, 40 mg/kg QD, Gelucire delivery vehicle, 674+/−84 without NDGA, significant lowering) of 312 ± 38 mg/dL, a glucose (Fat/STZ rats; Fat/STZ rat, 40 mg/kg QD, Gelucire vehicle) of 299 ± 25 mg/dL and a glucose (Fat/STZ rats; Fat/STZ rat, 250 mg/kg QD, Gelucire vehicle) of 325 ± 26 mg/dL. The triglyceride (Fat/STZ rats; Fat/STZ rat, 250 mg/kg QD, Gelucire vehicle, versus 674+/−84) was 249 ± 42 mg/dL, the glucose levels (Fat/STZ rats; Fat/STZ rat, Gelucire vehicle, 497+/−22 without NDGA, significant lowering) was 380+/−28 and the glucose levels (Fat/STZ rats; Fat/STZ rat, PEG delivery vehicle, 393+/−20 without NDGA, no significant lowering) was 364+/−20. The glucose lowering (Fat/STZ rats; Fat/STZ rats, given orally) was “significantly lowers glucose”, the “free fatty acid (FFA) concentrations” value (Fat/STZ rats; fat-fed/STZ rats) was “decreases free fatty acid (FFA) concentrations” and the plasma triglyceride lowering (Fat/STZ rats; fat-fed/STZ rats) was “significantly and dramatically lowered plasma triglycerides”. For the same compound, the glucose lowering (Fat/STZ rats; fat/STZ rat, single daily dose of 150 mg/kg) was “ineffective in lowering glucose”, the “change in insulin concentrations” value [2, 3] was “without changing insulin concentration; also recorded: without any change in insulin concentrations” and the “glucose lowering in comparison to the vehicle control” value [2, 3] was “significantly lowered glucose”. For the same compound, the “triglyceride lowering in comparison to the vehicle control” value [2, 3] was “significantly lowered triglycerides” and the “lowering of triglyceride concentrations in comparison to vehicle” value ([2]; equimolar dosing with metformin) was 80%.
